Measured values from the supplement of paper PMC10307832.

What was measured:
Experiment in all cases: relative viability (nuclei count vs DMSO), 5 days (fraction); higher = more cells survive
DM3189 = compound: C1CN(CCN1)C2=CC=C(C=C2)C3=CN4C(=C(C=N4)C5=CC=NC6=CC=CC=C56)N=C3 [DM3189]
Outline: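 Acceptance criteria were a control CV below 25% and at least one doubling per plate. Lung cancer cell lines in 1536-well plates got five library-drug doses (not always all listed) √10 apart by pinning and were left 5 days with no medium change. Viability divides treated-well nuclei by vehicle-well nuclei and is the median across plates. Nuclei were counted by MetaXpress from 4× Hoechst images.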

DM3189 + Bortezomib = compound: C1CN(CCN1)C2=CC=C(C=C2)C3=CN4C(=C(C=N4)C5=CC=NC6=CC=CC=C56)N=C3 [DM3189] + CC(C)C[C@H](NC(=O)[C@H](Cc1ccccc1)NC(=O)c1cnccn1)B(O)O [Bortezomib] (partner 0.002 µM)
Outline: (§1)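 Lung cancer cell lines were pin-tool dosed in 1536-well plates on the day after seeding, with either a lone drug or a fixed anchor-drug dose plus five library-drug doses (not always all listed) in √10 steps. Nuclei were counted on 4× images after 5 days. Relative viability is the ratio of treated-well to vehicle-well nuclei counts, with each value a median of duplicate plates.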

DM3189 + Navitoclax = compound: C1CN(CCN1)C2=CC=C(C=C2)C3=CN4C(=C(C=N4)C5=CC=NC6=CC=CC=C56)N=C3 [DM3189] + CC1(C)CCC(c2ccc(Cl)cc2)=C(CN2CCN(c3ccc(C(=O)NS(=O)(=O)c4ccc(N[C@H](CCN5CCOCC5)CSc5ccccc5)c(S(=O)(=O)C(F)(F)F)c4)cc3)CC2)C1 [Navitoclax] (partner 0.5 µM)
Outline: as §1

DM3189 + Foretinib = compound: C1CN(CCN1)C2=CC=C(C=C2)C3=CN4C(=C(C=N4)C5=CC=NC6=CC=CC=C56)N=C3 [DM3189] + COc1cc2c(Oc3ccc(NC(=O)C4(C(=O)Nc5ccc(F)cc5)CC4)cc3F)ccnc2cc1OCCCN1CCOCC1 [Foretinib] (partner 0.25 µM)
Outline: as §1

DM3189 + Lapatinib = compound: C1CN(CCN1)C2=CC=C(C=C2)C3=CN4C(=C(C=N4)C5=CC=NC6=CC=CC=C56)N=C3 [DM3189] + CS(=O)(=O)CCNCc1ccc(-c2ccc3ncnc(Nc4ccc(OCc5cccc(F)c5)c(Cl)c4)c3c2)o1 [Lapatinib] (partner 2 µM)
Outline: as §1

DM3189 + Pictilisib = compound: C1CN(CCN1)C2=CC=C(C=C2)C3=CN4C(=C(C=N4)C5=CC=NC6=CC=CC=C56)N=C3 [DM3189] + CS(=O)(=O)N1CCN(Cc2cc3nc(-c4cccc5[nH]ncc45)nc(N4CCOCC4)c3s2)CC1 [Pictilisib] (partner 1 µM)
Outline: as §1

DM3189 + Crizotinib = compound: C1CN(CCN1)C2=CC=C(C=C2)C3=CN4C(=C(C=N4)C5=CC=NC6=CC=CC=C56)N=C3 [DM3189] + C[C@@H](Oc1cc(-c2cnn(C3CCNCC3)c2)cnc1N)c1c(Cl)ccc(F)c1Cl [Crizotinib] (partner 1 µM)
Outline: as §1

DM3189 + Linsitinib = compound: C1CN(CCN1)C2=CC=C(C=C2)C3=CN4C(=C(C=N4)C5=CC=NC6=CC=CC=C56)N=C3 [DM3189] + C[C@]1(O)C[C@@H](c2nc(-c3ccc4ccc(-c5ccccc5)nc4c3)c3c(N)nccn32)C1 [Linsitinib] (partner 1 µM)
Outline: as §1

DM3189 + Alpelisib = compound: C1CN(CCN1)C2=CC=C(C=C2)C3=CN4C(=C(C=N4)C5=CC=NC6=CC=CC=C56)N=C3 [DM3189] + Cc1nc(NC(=O)N2CCC[C@H]2C(N)=O)sc1-c1ccnc(C(C)(C)C(F)(F)F)c1 [Alpelisib] (partner 2 µM)
Outline: as §1

DM3189 + Olaparib = compound: C1CN(CCN1)C2=CC=C(C=C2)C3=CN4C(=C(C=N4)C5=CC=NC6=CC=CC=C56)N=C3 [DM3189] + O=C(c1cc(Cc2n[nH]c(=O)c3ccccc23)ccc1F)N1CCN(C(=O)C2CC2)CC1 [Olaparib] (partner 8 µM)
Outline: as §1

NCI-H1299
relative viability (DM3189; 0.08 µM): 0.967
relative viability (DM3189; 0.253 µM): 0.987
relative viability (DM3189; 0.8 µM): 0.976
relative viability (DM3189; 2.53 µM): 1.04
relative viability (DM3189 + Bortezomib; first compound 0.08 µM): 1.06
relative viability (DM3189 + Bortezomib; first compound 0.253 µM): 1.01
relative viability (DM3189 + Bortezomib; first compound 0.8 µM): 1.01
relative viability (DM3189 + Bortezomib; first compound 2.53 µM): 1.01
relative viability (DM3189 + Navitoclax; first compound 0.08 µM): 1.03
relative viability (DM3189 + Navitoclax; first compound 0.253 µM): 0.985
relative viability (DM3189 + Navitoclax; first compound 0.8 µM): 1.02
relative viability (DM3189 + Navitoclax; first compound 2.53 µM): 1.03
relative viability (DM3189 + Foretinib; first compound 0.08 µM): 1.09
relative viability (DM3189 + Foretinib; first compound 0.253 µM): 0.996
relative viability (DM3189 + Foretinib; first compound 0.8 µM): 1.06
relative viability (DM3189 + Foretinib; first compound 2.53 µM): 1.08
relative viability (DM3189 + Lapatinib; first compound 0.08 µM): 1.01
relative viability (DM3189 + Lapatinib; first compound 0.253 µM): 0.926
relative viability (DM3189 + Lapatinib; first compound 0.8 µM): 0.899
relative viability (DM3189 + Lapatinib; first compound 2.53 µM): 0.94
relative viability (DM3189 + Pictilisib; first compound 0.08 µM): 0.911
relative viability (DM3189 + Pictilisib; first compound 0.253 µM): 0.776
relative viability (DM3189 + Pictilisib; first compound 0.8 µM): 0.59
relative viability (DM3189 + Pictilisib; first compound 2.53 µM): 0.495
relative viability (DM3189 + Crizotinib; first compound 0.08 µM): 0.99
relative viability (DM3189 + Crizotinib; first compound 0.253 µM): 0.914
relative viability (DM3189 + Crizotinib; first compound 0.8 µM): 0.924
relative viability (DM3189 + Crizotinib; first compound 2.53 µM): 0.983
relative viability (DM3189 + Linsitinib; first compound 0.08 µM): 0.998
relative viability (DM3189 + Linsitinib; first compound 0.253 µM): 1.01
relative viability (DM3189 + Linsitinib; first compound 0.8 µM): 0.958
relative viability (DM3189 + Linsitinib; first compound 2.53 µM): 1.06
relative viability (DM3189 + Alpelisib; first compound 0.08 µM): 1.09
relative viability (DM3189 + Alpelisib; first compound 0.253 µM): 1.07
relative viability (DM3189 + Alpelisib; first compound 0.8 µM): 0.968
relative viability (DM3189 + Alpelisib; first compound 2.53 µM): 1.15
relative viability (DM3189 + Olaparib; first compound 0.08 µM): 0.963
relative viability (DM3189 + Olaparib; first compound 0.253 µM): 0.922
relative viability (DM3189 + Olaparib; first compound 0.8 µM): 0.753
relative viability (DM3189 + Olaparib; first compound 2.53 µM): 1.05
